Tests used:
Type in all cases: cell-based
SH-SY5Y cell line [1] = assay: Inhibition of reactive oxygen species generation (CM-H2DCFDA fluorescence); details: compound 10 μM
Procedure: It is known that the administration of MPP+ or rotenone to cell lines results in the generation of reactive oxygen species (ROS) due to mitochondrial inhibition, the activation of NOX enzymes and the like. The excessively generated ROS can induce various inflammatory responses through multiple pathways. The ROS generated in this process react with the CM-H2DCFDA reagent to produce fluorescence, thereby allowing the indirect quantification of ROS.
Specifically, the SH-SY5Y cell line was treated with Compound 1aaa (Compound 1, 10 μM), apocynin (5 μM), or allopurinol (50 μM), and then with MPP+ (2 mM) or rotenone (2 μM) for 24 hours. The effect of each compound to inhibit the generation of reactive oxygen species is illustrated in FIGS. 2 and 3 as a relative percentage to that of the control group.

SH-SY5Y cell line [2] = assay: Cell viability (MTT assay); details: compound 0.5 μM; for cell viability after MPP+: MPP+ (2 mM) 24 hours; for cell viability after rotenone: rotenone (2 μM) 24 hours
Procedure: The treatment of cell lines with the toxic substances MPP+ or rotenone induces cytotoxicity due to various inflammatory and immune response abnormalities. The viability of the cells under these conditions can be measured using the MTT assay.
Specifically, the SH-SY5Y cell line was treated with 0.5 μM of Compound 1aaa (Compound 1), 1aca (Compound 24), 1ace (Compound 27), 1ahe (Compound 44) or 1aje (Compound 62) and then with MPP+ (2 mM) or rotenone (2 μM) for 24 hours. Cell viability in the case of being treated with each compound is illustrated in FIGS. 4 and 5.

Nrf-2 = Nrf-2 induction, Western blot of nuclear fraction; details: SH-SY5Y, compound 10 μM, 24 hours, increase
Procedure: When oxidative stress caused by reactive oxygen species increases in cells, the synthesis of antioxidants increases in response to this. One of the transcription factors mediating this antioxidant response is Nrf-2. As the transcription factor Nrf-2 enters the nucleus and the expression of genes related to antioxidation increases, the antioxidant capacity of cells increases,
Specifically, the SH-SY5Y cell line was exposed to Compound 1aaa (Compound 1, 10 μM) for 24 hours and then the cells were taken. Thereafter, the nuclear fraction was extracted, then Western blotting was performed to analyze the amount of Nrf-2 in the nucleus, and the results are illustrated in FIG. 6.

BV2 cell lines = assay: Anti-inflammatory activity: morphological changes of LPS-treated BV2 cells; details: compound 0.1, 1, 10 μg/ml for 2 hours, then LPS (10 μg/ml), 24 hours
Procedure: (§1) To evaluate the anti-inflammatory activity of the compounds of the present invention, the morphological changes related to inflammation in cells and the suppression of the expression of inflammatory proteins (IL-1R and COX2) were assessed.
(§2) Specifically, BV2 cell lines were treated with compound 1aaa (0.1, 1, 10 μg/ml) for 2 hours, followed by treatment with LPS (10 μg/ml), and then cultured for 24 hours. Additionally, Western blot analysis was performed to analyze the expression of inflammatory proteins, and the results are shown in FIGS. 8 and 9.

IL-1β = assay: Anti-inflammatory activity: Western blot of IL-1β expression in LPS-treated BV2 cells; details: BV2, compound 0.1, 1, 10 μg/ml, LPS (10 μg/ml), 24 hours
Procedure: as §1, §2

COX2 = assay: Anti-inflammatory activity: Western blot of COX2 expression in LPS-treated BV2 cells; details: BV2, compound 0.1, 1, 10 μg/ml, LPS (10 μg/ml), 24 hours
Procedure: as §1, §2

Row | SMILES | generation of reactive oxygen species after MPP+ (SH-SY5Y cell line [1]; MPP+ (2 mM) 24 hours) | generation of reactive oxygen species after rotenone (SH-SY5Y cell line [1]; rotenone (2 μM) 24 hours) | cell viability after MPP+ (SH-SY5Y cell line [2]) | cell viability after rotenone (SH-SY5Y cell line [2]) | amount of Nrf-2 in the nucleus (Nrf-2) | activation of BV2 macrophages (morphology) (BV2 cell lines) | expression of IL-1β (IL-1β) | expression of COX2 (COX2)
1 | CN1C(=[Se])N(c2ccccc2)C(=O)/C1=C\c1ccc(O)cc1O [Compound 1, 5-(2,4-dihydroxybenzylidene)-1-methyl-3-phenyl-2-selenoxoimidazolidin-4-one] | effectively inhibits | effectively inhibits | improve cell viability | improve cell viability | about 1.5 times | inhibited the activation of BV2 macrophages in a dose-dependent manner | significantly suppressed | significantly suppressed
2 | CCc1ccc(N2C(=O)/C(=C\c3ccc(O)cc3O)N(C)C2=[Se])cc1 [Compound 24, 5-(2,4-dihydroxybenzylidene)-3-(4-ethylphenyl)-1-methyl-2-selenoxoimidazolidin-4-one] |  |  | improve cell viability | improve cell viability |  |  |  | 
3 | CCc1ccc(N2C(=O)/C(=C\c3cc(O)cc(O)c3)N(C)C2=[Se])cc1 [Compound 27, 5-(3,5-dihydroxybenzylidene)-3-(4-ethylphenyl)-1-methyl-2-selenoxoimidazolidin-4-one] |  |  | improve cell viability | improve cell viability |  |  |  | 
4 | CN1C(=[Se])N(CCc2ccccc2)C(=O)/C1=C\c1cc(O)cc(O)c1 [Compound 44, 5-(3,5-dihydroxybenzylidene)-1-methyl-3-phenethyl-2-selenoxoimidazolidin-4-one] |  |  | improve cell viability | improve cell viability |  |  |  | 
5 | CCCCCCN1C(=O)/C(=C\c2cc(O)cc(O)c2)N(C)C1=[Se] [Compound 62, 5-(3,5-dihydroxybenzylidene)-3-hexyl-1-methyl-2-selenoxoimidazolidin-4-one] |  |  | improve cell viability | improve cell viability |  |  |  | 

Source: patent US20240358679A1, “PHARMACEUTICAL AND FOOD COMPOSITIONS FOR THE PREVENTION, ALLEVIATION, OR TREATMENT OF INFLAMMATORY DISEASES COMPRISING 1-ALKYL-5-ARYLIDENE-2-SELENOXOIMIDAZOLIDIN-4-ONE AND ITS DERIVATIVES” (priority 2022, published 2024)
